Experimental data: EP1285918A1, “C7 Ester substituted taxanes as antitumor agents” (Florida State University Research Foundation, Inc., priority 2001, dated 2003)
Read-outs that look alike come from different tables or passages of the source.

Tests used:
[1] = system: SKMES Human Lung Carcinoma Xenograft
Procedure: Antitumor compounds were formulated for oral administration over a wide dose range in a study to investigate the efficacy of this compound against the SKMES human lung cancer xenograft. The antitumor compounds were prepared in the following vehicle: 5% ethanol, 5% Cremophor and 90% isotonic saline.
Female Nu/Nu mice (6-8 weeks of age; implanted with 1 mm^3 SKMES lung carcinoma fragments in the flank) were sorted into treatment groups of six mice each. SKMES size ranges and group mean SKMES size ranges were 126-448 mg and 238-241 mg, respectively. […] Treatments were administered as a single oral bolus on Day 1, and the study was terminated on Day 60.
The mean days of survival is the number of days after which a SKMES neoplasm reached a size of 2.0 g and the animal was euthanized. A complete response is obtained if the tumor is not palpable at the end of the study. A partial response is obtained if the tumor shrinks to a size smaller than its size on Day 1 of the study. […]

[2] = system: HCT116 Human Colon Carcinoma Xenograft; conditions: HCT116, i.v. Day 1 (Taxol 36 mg/kg split dose, 1393 73 mg/kg single dose)
[3] = system: MX-1 Human Breast Carcinoma Xenograft; conditions: 6 mice/group, study end Day 60
Procedure: The antitumor compounds were prepared in the following vehicle: 5% ethanol, 5% Cremophor and 90% isotonic saline.
Female Nu/Nu mice (12-13 weeks of age; implanted with 1 mm^3 MX-1 human breast carcinoma fragments in the flank) were sorted into treatment groups of six mice each (MX-1 tumor size ranges and group mean MX-1 tumor size ranges were 56-138 mg and 68-74 mg, respectively). […] All treatments were administered as a single oral bolus on Day 1, and the study was terminated on Day 60.
The mean days of survival is the number of days after which an MX-1 neoplasm reached a size of 1.5 g and the animal was euthanized. A complete response is obtained if the tumor is not palpable at the end of the study. A partial response is obtained if the tumor shrinks to a size smaller than its size on Day 1 of the study.

[4] = system: NCI-H1299 (H1299) carcinoma; conditions: i.v. split dose qd x 1 at MTD (Taxol 36 mg/kg, 1393 72.1 mg/kg), 6 mice/group, Day 60
Procedure: Two antitumor compounds were formulated for an i.v. dosing regime prepared in the following vehicle: 10% ethanol, 10% Cremophor and 80% isotonic saline. […] Other compounds were formulated similarly.
The MTDs for the antitumor compounds were calculated from earlier single dose data for mice receiving i.v. administration of these compounds. […] Vehicle control animals were dosed twice intravenously with half the total volume being given separated by one hour. The study was terminated at Day 60.
The results are summarized in Table 1 and include mean days of survival (MDS), number of toxic deaths, number of survivors, number of complete or partial responses, and number with stable disease. The mean days of survival is the number of days after which a neoplasm reached a size of 1.5 g and the animal was euthanized. A complete response is obtained if the tumor is not palpable at the end of the study. A partial response is obtained if the tumor shrinks to a size smaller than its size on Day 1 of the study.
A tumor scoring system was designed to provide a more quantitative ranking of efficacy (therapeutic potential) among the antitumor agents evaluated against the different human solid tumor xenografts. Each mouse in a study was given a score of from 1 to 10 at the end of the study. The scores can be summarized as follows:
The individual score for each mouse was averaged into a mean score for each treatment group. […]
The treatment protocol for the H1299 test was identical to the SK-MES test protocol. […]

[5] = system: SKMES human lung cancer xenograft; conditions: for Complete Responses / Partial Responses / Stable Disease / Toxic Deaths / MDS (n) / % Total Response: 6 mice/group, study end Day 62; for MDS (n): days until tumor reached 2.0 g; for MDS: 2.0 g cut-off
Procedure: Female Nu/Nu mice (6-8 weeks of age; implanted with 1 mm^3 SKMES lung carcinoma fragments in the flank) were sorted into treatment groups of six mice each. […] Treatment was administered as a single bolus on Day 1, and the study was terminated on Day 62.
The mean days of survival is the number of days after which a SKMES neoplasm reached a size of 2.0 g and the animal was euthanized. A complete response is obtained if the tumor is not palpable at the end of the study. A partial response is obtained if the tumor shrinks to a size smaller than its size on Day 1 of the study.

[6] = 73 mg/kg single oral bolus Day 1, 6 mice/group, study end Day 60
[7] = 104 mg/kg single oral bolus Day 1, 6 mice/group, study end Day 60
[8] = 73.4 mg/kg single oral bolus Day 1
[9] = 105 mg/kg single oral bolus Day 1
[10] = 5.2 mg/kg single IV bolus Day 1
[11] = 5.2 mg/kg single oral bolus Day 1
[12] = 10.4 mg/kg single IV bolus Day 1
[13] = 10.4 mg/kg single oral bolus Day 1
[14] = 20.8 mg/kg single IV bolus Day 1
[15] = 20.8 mg/kg single oral bolus Day 1
[16] = 42 mg/kg single oral bolus Day 1
[17] = 73 mg/kg single oral bolus Day 1
[18] = 104 mg/kg single IV bolus Day 1
[19] = 104 mg/kg single oral bolus Day 1

CCC(=O)O[C@H]1C[C@H]2OC[C@@]2(OC(C)=O)[C@H]2[C@H](OC(=O)c3ccccc3)[C@]3(O)C[C@H](OC(=O)[C@H](O)[C@@H](NC(=O)OC(C)(C)C)c4ccco4)C(C)=C([C@@H](O)C(=O)[C@]12C)C3(C)C [Compound 1393, 3'-Desphenyl-3'-(2-furyl)-7-propionyl taxotere]
3: Complete Responses ([5]; 42 mg/kg single IV bolus Day 1) | Complete Responses ([5]; 73 mg/kg single IV bolus Day 1) | Partial Responses ([5]; 73 mg/kg single IV bolus Day 1)
5: Complete Responses [3, 9] | Complete Responses [5, 18]
23.2 ± 1.8 (6) days: MDS (n) [5, 14]
2: Toxic Deaths [4] | Complete Responses [5, 17]
16.3 ± 1.3 (6) days: MDS (n) [5, 12]
9.2 ± 0.2: Mean Score ([2]; tumor score 1 to 10, group mean)
9.1 ± 0.7 (6) days: MDS (n) [5, 13]
1: Stable Disease [3, 8] | Toxic Deaths [3, 8] | Partial Responses ([5]; 42 mg/kg single IV bolus Day 1) | Toxic Deaths [5, 17] | Partial Responses [5, 18] | Partial Responses [5, 19]
0: Toxic Deaths ([1]; 5.2 mg/kg single oral bolus Day 1, 6 mice/group, study end Day 60) | Toxic Deaths ([1]; 10.4 mg/kg single oral bolus Day 1, 6 mice/group, study end Day 60) | Toxic Deaths ([1]; 20.8 mg/kg single oral bolus Day 1, 6 mice/group, study end Day 60) | Toxic Deaths ([1]; 42 mg/kg single oral bolus Day 1, 6 mice/group, study end Day 60) | Toxic Deaths [1, 6] | Toxic Deaths [1, 7] | Stable Disease ([2]; 5 mice/group, Day 60) | Partial Responses [3, 8] | Partial Responses [3, 9] | Stable Disease [3, 9] | Toxic Deaths [3, 9] | Complete Responses [5, 10] | Partial Responses [5, 10] | Stable Disease [5, 10] | Toxic Deaths [5, 10] | Complete Responses [5, 11] | Partial Responses [5, 11] | Stable Disease [5, 11] | Toxic Deaths [5, 11] | Complete Responses [5, 12] | Partial Responses [5, 12] | Stable Disease [5, 12] | Toxic Deaths [5, 12] | Complete Responses [5, 13] | Partial Responses [5, 13] | Stable Disease [5, 13] | Toxic Deaths [5, 13] | Complete Responses [5, 14] | Partial Responses [5, 14] | Stable Disease [5, 14] | Toxic Deaths [5, 14] | Complete Responses [5, 15] | Partial Responses [5, 15] | Stable Disease [5, 15] | Toxic Deaths [5, 15] | Stable Disease ([5]; 42 mg/kg single IV bolus Day 1) | Toxic Deaths ([5]; 42 mg/kg single IV bolus Day 1) | Complete Responses [5, 16] | Partial Responses [5, 16] | Stable Disease [5, 16] | Toxic Deaths [5, 16] | Stable Disease ([5]; 73 mg/kg single IV bolus Day 1) | Toxic Deaths ([5]; 73 mg/kg single IV bolus Day 1) | Partial Responses [5, 17] | Stable Disease [5, 17] | Stable Disease [5, 18] | Toxic Deaths [5, 18] | Stable Disease [5, 19] | Toxic Deaths [5, 19]
23.2 days: MDS ([1]; SKMES, 1393 single oral bolus 42 mg/kg (Group 7), 2.0 g cut-off) | MDS ([5]; SKMES, 1393 single IV bolus 20.8 mg/kg (Group 6))
66.7%: % Total Response ([5]; 42 mg/kg single IV bolus Day 1)
9.2 ± 0.8 (6) days: MDS (n) [5, 11]
9.6 ±0.6 (6) days: MDS (n) [5, 15]
100%: % Total Response ([5]; 73 mg/kg single IV bolus Day 1) | % Total Response [5, 18]
14.5 ± 1.1 (6) days: MDS (n) [5, 16]
16.3 days: MDS ([5]; SKMES, 1393 single IV bolus 10.4 mg/kg (Group 7))
23.2 ± 4.8 (4) days: MDS (n) ([1]; 42 mg/kg single oral bolus Day 1, 6 mice/group, study end Day 60, days until tumor reached 2.0 g)
0%: % Total Response [5, 11] | % Total Response [5, 13] | % Total Response [5, 14] | % Total Response [5, 15] | % Total Response [5, 16]
40%: % Total Response [5, 17]
4: Partial Response ([2]; 5 mice/group, Day 60) | Complete Responses [3, 8] | Complete Responses [5, 19]
83.3%: % Total Response [1, 6] | % Total Response [1, 7] | % Total Response [5, 19]
not active: activity ([5]; SKMES, 1393 orally, lower doses (20.8, 10.4, 5.2 mg/kg))
36.3 ±1.5 (3) days: MDS (n) [5, 17]
10.5 ± 0.9 (6) days: MDS (n) [5, 10]
